Data taken from ChEMBL document CHEMBL5346887, “Design and evaluation of dibenzoazepine-tetrahydroisoquinoline hybrids as potential P-glycoprotein inhibitors against multidrug resistant K562/A02 cells” (Eur J Med Chem, 2023).
Active and inactive are the calls of the source. No cut-off for these calls is given here.

How the values were obtained:
K562/A02 [1] = assay: Cytotoxicity against human K562/A02 cells assessed as inhibition of cell growth incubated for 72 hrs by CCK-8 assay; format: functional, cell-based; conditions: K562/A02, 72 h
K562/A02 [2] = assay: Reversal fold, ratio of ADR IC50 to test compound IC50 for reversal of multi-drug resistance in human K562/A02 cells; format: functional
K562/A02 [3] = assay: Reversal of adriamycin resistance in human K562/A02 cells incubated for 48 hrs; format: functional, cell-based; conditions: K562/A02, 48 h
K562/A02 [4] = assay: Reversal fold, ratio of ADR IC50 to test compound IC50 for reversal of multi-drug resistance in human K562/A02 cells at 0.4 uM; format: functional
K562/A02 [5] = assay: Antitumor activity against human K562/A02 cells xenografted in BALB/c nude mouse assessed as reduction in tumor volume at 2 mg/kg, ip measured upto 14 days by vernier caliper analysis; format: functional; conditions: time <= 14 day
K562 [6] = assay: cells; conditions: Homo sapiens, K562, 72 h
Description: Cytotoxicity against human K562 cells assessed as inhibition of cell growth incubated for 72 hrs by CCK-8 assay

K562/A02 [7] = assay: Reversal of multi-drug resistance in human K562/A02 cells increase in intracellular Rh123 level incubated for 30 mins by flow cytometry analysis; format: functional, cell-based; conditions: dose 0.5-8 µM
K562 [8] = assay: Reversal of multi-drug resistance in human K562 cells increase in intracellular Rh123 level at 0.5 to 8 uM incubated for 30 mins by flow cytometry analysis; format: functional, cell-based; conditions: dose 0.5-8 µM
K562/A02 [9] = assay: Effect on P-gp expression in human K562/A02 cells at 0.5 to 8 uM measured after 24 hrs by Western blot analysis; format: functional, cell-based; conditions: dose 0.5-8 µM
[10] = biological target: ATP-dependent translocase ABCB1 (Homo sapiens, UniProt P08183); assay: Binding affinity to p-gp in human K562/A02 cells assessed as increase in thermal stabilization at 50 uM incubated for 1 hr by CETSA analysis; format: cell-based; conditions: k562/a02, 1 h
Cytochrome P450 3A4 = Cytochrome P450 3A4 (Homo sapiens, UniProt P08684); assay: Inhibition of CYP3A4 (unknown origin) using luciferin-IPA as substrate preincubated for 1 hr followed by substrate addition and measured after 1 hr by luminometer assay; format: ADME
K562/A02 [11] = assay: Antitumor activity against human K562/A02 cells xenografted in BALB/c nude mouse assessed as reduction in tumor volume at 20 mg/kg, ip measured upto 14 days by vernier caliper analysis; format: functional; conditions: time <= 14 day
K562/A02 [12] = assay: Antitumor activity against human K562/A02 cells xenografted in BALB/c nude mouse assessed as reduction in tumor volume at 20 mg/kg, ip measured upto 14 days in presence of ADR by vernier caliper analysis; format: functional; conditions: time <= 14 day
K562/A02 [13] = assay: Antitumor activity against human K562/A02 cells xenografted in BALB/c nude mouse assessed as reduction in tumor weight at 20 mg/kg, ip measured upto 14 days in presence of ADR by vernier caliper analysis; format: functional, organism-based; conditions: time <= 14.0 day

Chain of Cytochrome P450 3A4 (P08684 whole entry): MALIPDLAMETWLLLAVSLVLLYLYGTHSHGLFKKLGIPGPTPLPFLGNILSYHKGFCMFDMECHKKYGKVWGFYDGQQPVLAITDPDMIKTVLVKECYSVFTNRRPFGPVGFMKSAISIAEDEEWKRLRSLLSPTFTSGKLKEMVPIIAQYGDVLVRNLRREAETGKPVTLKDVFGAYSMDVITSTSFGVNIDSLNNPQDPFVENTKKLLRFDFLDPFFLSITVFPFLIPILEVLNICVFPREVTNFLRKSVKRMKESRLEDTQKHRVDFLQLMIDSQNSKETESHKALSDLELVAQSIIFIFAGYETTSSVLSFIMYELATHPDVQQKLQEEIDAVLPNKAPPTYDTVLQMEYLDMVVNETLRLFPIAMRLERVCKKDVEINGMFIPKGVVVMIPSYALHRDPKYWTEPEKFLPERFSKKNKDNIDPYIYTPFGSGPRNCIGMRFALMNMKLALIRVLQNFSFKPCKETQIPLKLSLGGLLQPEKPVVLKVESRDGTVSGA
Chain of ATP-dependent translocase ABCB1 (P08183 whole entry): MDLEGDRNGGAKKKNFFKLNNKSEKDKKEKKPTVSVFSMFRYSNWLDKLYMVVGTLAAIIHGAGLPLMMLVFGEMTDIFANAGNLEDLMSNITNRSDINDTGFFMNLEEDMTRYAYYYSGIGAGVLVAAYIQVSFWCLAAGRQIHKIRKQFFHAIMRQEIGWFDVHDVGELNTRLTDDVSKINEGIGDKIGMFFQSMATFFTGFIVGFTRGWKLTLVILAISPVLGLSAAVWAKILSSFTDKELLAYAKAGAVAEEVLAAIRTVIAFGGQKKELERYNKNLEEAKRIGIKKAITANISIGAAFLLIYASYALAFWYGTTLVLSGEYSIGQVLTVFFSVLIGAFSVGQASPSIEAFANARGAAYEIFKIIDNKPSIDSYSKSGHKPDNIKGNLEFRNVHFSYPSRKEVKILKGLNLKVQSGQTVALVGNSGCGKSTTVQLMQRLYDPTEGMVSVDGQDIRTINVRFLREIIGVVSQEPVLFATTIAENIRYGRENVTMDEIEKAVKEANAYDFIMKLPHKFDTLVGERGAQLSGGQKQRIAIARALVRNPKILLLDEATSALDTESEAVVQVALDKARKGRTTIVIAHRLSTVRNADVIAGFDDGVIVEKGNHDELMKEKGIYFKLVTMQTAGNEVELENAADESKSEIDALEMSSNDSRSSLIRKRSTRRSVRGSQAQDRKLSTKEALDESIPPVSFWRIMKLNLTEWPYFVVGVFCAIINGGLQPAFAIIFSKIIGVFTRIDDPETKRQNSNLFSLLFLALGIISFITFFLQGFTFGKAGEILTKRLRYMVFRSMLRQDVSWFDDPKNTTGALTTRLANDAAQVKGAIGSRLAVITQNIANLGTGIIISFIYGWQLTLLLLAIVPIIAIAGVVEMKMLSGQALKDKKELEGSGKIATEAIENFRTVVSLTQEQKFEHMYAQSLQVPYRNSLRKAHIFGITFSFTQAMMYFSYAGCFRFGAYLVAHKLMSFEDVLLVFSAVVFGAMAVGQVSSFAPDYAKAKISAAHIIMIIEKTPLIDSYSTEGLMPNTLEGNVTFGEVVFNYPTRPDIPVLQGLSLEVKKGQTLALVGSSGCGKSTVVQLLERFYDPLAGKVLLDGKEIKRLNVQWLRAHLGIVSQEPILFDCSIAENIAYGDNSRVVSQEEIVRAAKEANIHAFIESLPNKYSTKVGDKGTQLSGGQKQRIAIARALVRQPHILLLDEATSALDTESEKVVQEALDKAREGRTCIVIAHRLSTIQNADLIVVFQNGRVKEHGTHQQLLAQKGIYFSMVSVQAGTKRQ

SMILES	IC50 (K562/A02 [1]) [µM]	Ratio IC50 (K562/A02 [2])	Ratio IC50 (K562/A02 [4])	other results
COc1cc2c(cc1OC)CN(CCc1ccccc1N1Cc3cc(OC)c4c(c3-c3c(cc(OC)c5c3OCO5)C1)OCO4)CC2	> 100	0.85	–	–
COc1ccc(C(=O)Nc2ccccc2C(=O)Nc2ccc(CCN3CCc4cc(OC)c(OC)cc4C3)cc2)cc1OC	9.08	81.9	–	EC50 (K562/A02 [3]): 0.0303 µM
COc1ccc2c(c1)CCN(CCN1Cc3cc(OC)c4c(c3-c3c(cc(OC)c5c3OCO5)C1)OCO4)C2	5.1	–	4.87	–
COc1cccc2c1C(=O)c1c(O)c3c(c(O)c1C2=O)C[C@@](O)(C(=O)CO)C[C@@H]3O[C@H]1C[C@H](N)[C@H](O)[C@H](C)O1.Cl [DOXORUBICIN HYDROCHLORIDE]	2.4	–	–	Activity (K562/A02 [5]): 526.45 mm3; IC50 (K562 [6]): 0.001 µM
COc1cc2c(cc1OC)CN(CCCCCCN1Cc3cc(OC)c4c(c3-c3c(cc(OC)c5c3OCO5)C1)OCO4)CC2	2.04	–	8.24	–
COc1cc2c(cc1OC)CN(CCCN1Cc3cc(OC)c4c(c3-c3c(cc(OC)c5c3OCO5)C1)OCO4)CC2	16.6	2.01	–	–
COc1cc2c(c3c1OCO3)-c1c(cc(OC)c3c1OCO3)CN(c1ccc(CCN3CCNCC3)cc1)C2	4.63	–	14.23	–
COc1cc2c(cc1OC)CN(CCc1ccc(N3Cc4cc(OC)c5c(c4-c4c(cc(OC)c6c4OCO6)C3)OCO5)cc1)CC2	95.4	93.17	93.17	EC50 (K562/A02 [3]): 0.0487 µM; Activity (K562/A02 [7]): Dose-Dependent Effect; Activity (K562 [8]): Active; Activity (K562/A02 [9]): inactive; Activity [10]: Active; IC50 (Cytochrome P450 3A4): 2.61 µM; Activity (K562/A02 [11]): 525.75 mm3; Activity (K562/A02 [12]): 158.27 mm3; Activity (K562/A02 [13]): Active
COc1cc2c(cc1OC)CN(CCN1Cc3cc(OC)c4c(c3-c3c(cc(OC)c5c3OCO5)C1)OCO4)CC2	7.78	4.29	–	–
COc1cc2c(c3c1OCO3)-c1c(cc(OC)c3c1OCO3)CN(c1ccc(CCN3CCOCC3)cc1)C2	6.57	16.7	–	–
COc1ccc2c(c1)CCN(CCCN1Cc3cc(OC)c4c(c3-c3c(cc(OC)c5c3OCO5)C1)OCO4)C2	5.31	–	1.67	–
COc1cc2c(c3c1OCO3)-c1c(cc(OC)c3c1OCO3)CN(CCc1ccc3c(c1)OCO3)C2	–	20.58	12.78	EC50 (K562/A02 [3]): 0.122 µM
COc1cc2c(c3c1OCO3)-c1c(cc(OC)c3c1OCO3)CN(c1ccc(CCN3CCCCC3)cc1)C2	3.21	–	12.52	–
COc1ccc2c(c1)CCN(CCCCCCN1Cc3cc(OC)c4c(c3-c3c(cc(OC)c5c3OCO5)C1)OCO4)C2	> 100	4.23	–	–
COc1ccc2c(c1)CCN(CCc1ccc(N3Cc4cc(OC)c5c(c4-c4c(cc(OC)c6c4OCO6)C3)OCO5)cc1)C2	> 100	8.61	–	–
COc1cc2c(cc1OC)CN(Cc1ccc(N3Cc4cc(OC)c5c(c4-c4c(cc(OC)c6c4OCO6)C3)OCO5)cc1)CC2	13.6	374.09	46.82	–
COc1cc2c(c3c1OCO3)-c1c(cc(OC)c3c1OCO3)CN(c1ccc(CN3CCCCC3)cc1)C2	19.3	113.14	21.82	–
